Experimental data reported in patent publication US8119626B2, “Oxime derivative and preparations thereof” (Mitsubishi Tanabe Pharma Corporation, priority 2005, dated 2012).

target: T1, human-liver type GST-GK (Homo sapiens, UniProt P35557); assay: Glucokinase activation effect (G6PDH-coupled NADPH assay); type: biochemical; details: 5 mM glucose, 5 mM ATP, 30° C., absorbance 340 nm for 15 minutes, 5% DMSO
T1 construct: made in house; host or cells: E. coli
T1 sequence (P35557 1-466 isoform P35557-2): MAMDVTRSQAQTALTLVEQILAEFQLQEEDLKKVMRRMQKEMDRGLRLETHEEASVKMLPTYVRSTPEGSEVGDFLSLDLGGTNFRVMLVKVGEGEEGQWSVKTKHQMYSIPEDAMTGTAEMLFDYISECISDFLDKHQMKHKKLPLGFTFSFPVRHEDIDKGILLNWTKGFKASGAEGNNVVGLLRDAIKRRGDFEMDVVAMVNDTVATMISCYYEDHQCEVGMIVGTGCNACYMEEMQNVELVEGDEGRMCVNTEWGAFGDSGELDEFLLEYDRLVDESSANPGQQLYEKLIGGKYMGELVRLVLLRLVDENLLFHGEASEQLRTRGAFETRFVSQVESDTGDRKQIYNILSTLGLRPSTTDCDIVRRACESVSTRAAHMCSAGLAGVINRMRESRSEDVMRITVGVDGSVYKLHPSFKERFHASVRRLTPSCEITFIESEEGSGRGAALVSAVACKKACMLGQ
Protocol: A glucokinase activity was examined by measuring the amount of NADPH obtained in generating 6-phosphogluconic acid from glucose-6-phosphoric acid by a coupling enzyme glucose-6-phosphate dehydrogenase not by measuring directly the produced glucose-6-phosphoric acid. The glucokinase enzyme used in the examination is human-liver type GST-GK expressed in E. Coli. The measurement of GK activity was carried out by the following procedures.
Twenty five mM HEPES buffer (pH7.4) containing 25 mM MgCl2, […], 1 mM DTT, 5 mM NADP (Roche), 16.64 μg/mL G6PDH (Roche 737-232 grade II from yeast) and 2.8 μg/mL GST-GK was prepared as a reaction solution. An evaluating compound dissolved in DMSO was added to the reaction solution to give final concentration of 0.001 to 100 μM (5% DMSO). Thereto was added glucose (final concentration of 5 mM) as a substrate and was added ATP (final concentration of 5 mM), and the reaction was started. The reaction temperature is 30° C. and a generation of NADPH was monitored by changes of absorbance of 340 nm. An increasing in absorbance for 15 minutes from starting reaction was measured and the blank-corrected value was used as GK activity (mOD/min). EC50 level was calculated by a GK activity level in at each concentration of an evaluating compound.

| SMILES | EC50 |
| --- | --- |
| O=C1CN(Cc2cnc(NC(=O)/C(=N/O[C@@H]3CCOC3)c3ccc(S(=O)(=O)C4CC4)cc3)s2)CCN1 [Example 6] | 1200 nM |
| CC(=O)N1CCN(Cc2cnc(NC(=O)/C(=N/O[C@@H]3CCOC3)c3ccc(S(=O)(=O)C4CC4)cc3)s2)C[C@@H]1C [Example 9] | 550 nM |
| CC(=O)N1CCN(Cc2cnc(NC(=O)/C(=N/O[C@@H]3CCOC3)c3ccc(S(=O)(=O)C4CC4)cc3)s2)CC1 [Example 10] | 790 nM |
| COCC(=O)N1[C@H](C)CN(Cc2cnc(NC(=O)/C(=N/O[C@@H]3CCOC3)c3ccc(S(=O)(=O)C4CC4)cc3)s2)C[C@@H]1C [Example 11] | 880 nM |
| CN(C)CCOc1ccc2nc(NC(=O)/C(=N/O[C@@H]3CCOC3)c3ccc(S(=O)(=O)C4CC4)cc3)sc2n1 [Example 13-3] | 170 nM |
| O=C(Nc1ncc(CN2CCOCC2)s1)/C(=N/O[C@@H]1CCOC1)c1ccc(S(=O)(=O)C2CC2)cc1 [Example 18-2] | 930 nM |
| COc1ccc2nc(NC(=O)/C(=N/O[C@@H]3CCOC3)c3ccc(S(=O)(=O)C4CC4)cc3)sc2n1 [Example 24-25] | 84 nM |
| O=C(O)CCSc1cnc(NC(=O)/C(=N/O[C@@H]2CCOC2)c2ccc(S(=O)(=O)C3CC3)cc2)s1 [Example 46-1] | 100 nM |
| CC(=O)N1CCC(OCc2cnc(NC(=O)/C(=N/O[C@@H]3CCOC3)c3ccc(S(=O)(=O)C4CC4)cc3)s2)CC1 [Example 56] | 320 nM |
| O=C(Nc1ncc(F)s1)/C(=N/OCc1ncccn1)c1ccc(S(=O)(=O)C2CC2)cc1 [Example 62-5] | 410 nM |
| Cn1ccc(CO/N=C(/C(=O)Nc2ncc(F)s2)c2ccc(S(=O)(=O)C3CC3)cc2)n1 [Example 62-10] | 270 nM |
| O=C(Nc1ncc(F)s1)/C(=N/OCCCO)c1ccc(S(=O)(=O)C2CC2)cc1 [Example 67-2] | 390 nM |
| O=C(Nc1ncc(F)s1)/C(=N/O[C@@H]1CCOC1)c1ccc(S(=O)(=O)N2CCCOCC2)cc1 [Example 82-22] | 260 nM |
| O=C(Nc1ncc(F)s1)/C(=N/O[C@@H]1CCOC1)c1ccc(S(=O)(=O)NCCF)cc1 [Example 82-78] | 600 nM |
| Cn1ccnc1CS(=O)(=O)c1ccc(/C(=N\O[C@@H]2CCOC2)C(=O)Nc2ncc(F)s2)cc1 [Example 84-12] | 410 nM |
| CS(=O)(=O)c1ccc(/C(=N\OC2CCCC2)C(=O)Nc2ncc(C(N)=O)s2)cc1 [Example 91-8] | 520 nM |

| SMILES | EC50 |
| --- | --- |
| O=C(Nc1nccs1)/C(=N/OCc1ccccn1)c1ccc(S(=O)(=O)C2CC2)cc1 [Example 94-6] | 510 nM |
| COCCCS(=O)(=O)c1ccc(/C(=N\O[C@@H]2CCOC2)C(=O)Nc2ncc(COC)s2)cc1 [Example 98-1] | 840 nM |
| COCCCS(=O)(=O)c1ccc(/C(=N\O[C@@H]2CCOC2)C(=O)Nc2nc3ccc(OCCO)nc3s2)cc1 [Example 98-7] | 230 nM |
| C[C@@H](CO)O/N=C(/C(=O)Nc1ncc(Cl)s1)c1ccc(S(=O)(=O)C2CC2)cc1 [Example 104-2] | 300 nM |
| Cc1nsc(NC(=O)/C(=N/O[C@@H]2CC[C@@H](O)C2)c2ccc(S(=O)(=O)C3CC3)cc2)n1 [Example 116] | 570 nM |
| COc1cnc(NC(=O)/C(=N/O[C@@H]2CC[C@@H](OC)C2)c2ccc(S(=O)(=O)C3CC3)cc2)cn1 [Example 139-41] | 540 nM |
| CCN(CCO)S(=O)(=O)c1ccc(/C(=N\O[C@@H]2CCOC2)C(=O)Nc2cnc(C3CC3)cn2)cc1 [Example 139-94] | 350 nM |
| COCCN(C)S(=O)(=O)c1ccc(/C(=N\O[C@@H]2CCOC2)C(=O)Nc2ncc(CN3CCN(C)CC3)s2)cc1 [Example 139-125] | 760 nM |
| COCCCS(=O)(=O)c1ccc(/C(=N\OCc2ncccn2)C(=O)Nc2nc3ccc(OC)nc3s2)cc1 [Example 139-134] | 180 nM |
| COCCCS(=O)(=O)c1ccc(/C(=N\OC2CCCC2)C(=O)Nc2ccc(C(N)=O)cn2)cc1 [Example 139-159] | 520 nM |
| COCCCS(=O)(=O)c1ccc(/C(=N\O[C@@H]2CC[C@@H](O)C2)C(=O)Nc2ncc(C)s2)cc1 [Example 139-182] | 520 nM |
| COCCCS(=O)(=O)c1ccc(/C(=N\O[C@@H]2CCOC2)C(=O)Nc2nc3ccc(OCCO)cc3s2)cc1 [Example 139-214] | 570 nM |
| CNc1ccc2nc(NC(=O)/C(=N/O[C@@H]3CCOC3)c3ccc(S(=O)(=O)CCCOC)cc3)sc2n1 [Example 139-221] | 130 nM |
| CC(=O)N1CCN(Cc2cnc(NC(=O)/C(=N/O[C@@H]3CCOC3)c3ccc(S(=O)(=O)[C@H]4CCOC4)cc3)s2)C[C@H]1C [Example 139-237] | 600 nM |
| CNCCOc1ccc2nc(NC(=O)/C(=N/O[C@@H]3CCOC3)c3ccc(S(=O)(=O)NCCO)cc3)sc2n1 [Example 139-244] | 460 nM |
